Organism: Rattus norvegicus
Type: toxicity, organism-based, Sprague-Dawley
Settings: in vivo, po, route oral GAVAGE, vehicle 100 % SALINE; for ABSOLUTE EOSINOPHIL / ABSOLUTE LYMPHOCYTE / ABSOLUTE MONOCYTE / ABSOLUTE SEGMENTED NEUTROPHIL / BASOPHIL / EOSINOPHIL / ERYTHROCYTE COUNT / HEMATOCRIT / HEMOGLOBIN / LEUKOCYTE COUNT / LYMPHOCYTE / MEAN CORPUSCULAR HEMOGLOBIN / MEAN CORPUSCULAR HEMOGLOBIN CONCENTRATION / MONOCYTE / NEUTROPHIL / NUCLEATED RED BLOOD CELLS / PLATELET COUNT: tissue Blood; for ALANINE AMINOTRANSFERASE / ALBUMIN / ALKALINE PHOSPHATASE / ASPARTATE AMINOTRANSFERASE / BLOOD UREA NITROGEN / CARBON DIOXIDE / CHLORIDE / CHOLESTEROL / CREATINE PHOSPHOKINASE / CREATININE / GLUCOSE / LACTATE DEHYDROGENASE / LIPASE / PHOSPHORUS / POTASSIUM / SODIUM / TOTAL BILIRUBIN / TOTAL PROTEIN / URIC ACID: tissue Plasma
[1] = 700 mg/kg, 24 h, dose level Low, time 1 day
[2] = 2100 mg/kg, 6 h, dose level High, time 0.25 day
[3] = 2100 mg/kg, 24 h, dose level High, time 1 day

Description: DrugMatrix - Regimen: Single

CN(C)C=O [DIMETHYLFORMAMIDE]
ABSOLUTE EOSINOPHIL [1]: 0 CELLS/uL | ABSOLUTE LYMPHOCYTE [1]: 11354.83 CELLS/uL | ABSOLUTE MONOCYTE [1]: 102.33 CELLS/uL | ABSOLUTE SEGMENTED NEUTROPHIL [1]: 726.17 CELLS/uL | BASOPHIL [1]: 0% | EOSINOPHIL [1]: 0% | ERYTHROCYTE COUNT [1]: 5.12 x10E6/uL | HEMATOCRIT [1]: 33.43% | HEMOGLOBIN [1]: 13.52 G/DL | LEUKOCYTE COUNT [1]: 12.18 x10E3/uL | LYMPHOCYTE [1]: 93.17% | MEAN CORPUSCULAR HEMOGLOBIN [1]: 26.43 pg | MEAN CORPUSCULAR HEMOGLOBIN CONCENTRATION [1]: 40.52 G/DL | MONOCYTE [1]: 0.83% | NEUTROPHIL [1]: 6% | NUCLEATED RED BLOOD CELLS [1]: 0 /100WBC | PLATELET COUNT [1]: 1092.67 x10E3/uL | ALANINE AMINOTRANSFERASE [1]: 23.17 u/L | ALBUMIN [1]: 4.17 G/DL | ALKALINE PHOSPHATASE [1]: 336.83 u/L | ASPARTATE AMINOTRANSFERASE [1]: 50.5 u/L | BLOOD UREA NITROGEN [1]: 12.5 mg/dL | CARBON DIOXIDE [1]: 31.17 mmol/L | CHLORIDE [1]: 96.83 MEQ/L | CHOLESTEROL [1]: 74.83 mg/dL | CREATINE PHOSPHOKINASE [1]: 314.83 u/L | CREATININE [1]: 0.19 mg/dL | GLUCOSE [1]: 144.5 mg/dL | LACTATE DEHYDROGENASE [1]: 95 u/L | LIPASE [1]: 9.67 u/L | PHOSPHORUS [1]: 10.98 mg/dL | POTASSIUM [1]: 5.69 MEQ/L | SODIUM [1]: 142.42 MEQ/L | TOTAL BILIRUBIN [1]: 0.12 mg/dL | TOTAL PROTEIN [1]: 6.2 G/DL | URIC ACID [1]: 0.68 mg/dL | ABSOLUTE EOSINOPHIL [2]: 125.17 CELLS/uL | ABSOLUTE LYMPHOCYTE [2]: 14316 CELLS/uL | ABSOLUTE MONOCYTE [2]: 63 CELLS/uL | ABSOLUTE SEGMENTED NEUTROPHIL [2]: 1412.5 CELLS/uL | BASOPHIL [2]: 0% | EOSINOPHIL [2]: 0.83% | ERYTHROCYTE COUNT [2]: 5.21 x10E6/uL | HEMATOCRIT [2]: 35.07% | HEMOGLOBIN [2]: 12.68 G/DL | LEUKOCYTE COUNT [2]: 15.92 x10E3/uL | LYMPHOCYTE [2]: 89.67% | MEAN CORPUSCULAR HEMOGLOBIN [2]: 24.33 pg | MEAN CORPUSCULAR HEMOGLOBIN CONCENTRATION [2]: 36.2 G/DL | MONOCYTE [2]: 0.33% | NEUTROPHIL [2]: 9.17% | NUCLEATED RED BLOOD CELLS [2]: 0 /100WBC | PLATELET COUNT [2]: 1045.5 x10E3/uL | ALANINE AMINOTRANSFERASE [2]: 61 u/L | ALBUMIN [2]: 4.12 G/DL | ALKALINE PHOSPHATASE [2]: 276.83 u/L | ASPARTATE AMINOTRANSFERASE [2]: 108.5 u/L | BLOOD UREA NITROGEN [2]: 6.5 mg/dL | CARBON DIOXIDE [2]: 20.17 mmol/L | CHLORIDE [2]: 106 MEQ/L | CHOLESTEROL [2]: 72.83 mg/dL | CREATINE PHOSPHOKINASE [2]: 210.67 u/L | CREATININE [2]: 0.24 mg/dL | GLUCOSE [2]: 180 mg/dL | LACTATE DEHYDROGENASE [2]: 149.33 u/L | LIPASE [2]: 8.17 u/L | PHOSPHORUS [2]: 13.73 mg/dL | SODIUM [2]: 144.38 MEQ/L | TOTAL BILIRUBIN [2]: 0.1 mg/dL | TOTAL PROTEIN [2]: 5.32 G/DL | URIC ACID [2]: 2.23 mg/dL | ABSOLUTE EOSINOPHIL [3]: 20.83 CELLS/uL | ABSOLUTE LYMPHOCYTE [3]: 12212.83 CELLS/uL | ABSOLUTE MONOCYTE [3]: 201.33 CELLS/uL | ABSOLUTE SEGMENTED NEUTROPHIL [3]: 481.67 CELLS/uL | BASOPHIL [3]: 0% | EOSINOPHIL [3]: 0.17% | ERYTHROCYTE COUNT [3]: 5.11 x10E6/uL | HEMATOCRIT [3]: 32.92% | HEMOGLOBIN [3]: 13.1 G/DL | LEUKOCYTE COUNT [3]: 12.92 x10E3/uL | LYMPHOCYTE [3]: 94.67% | MEAN CORPUSCULAR HEMOGLOBIN [3]: 25.65 pg | MEAN CORPUSCULAR HEMOGLOBIN CONCENTRATION [3]: 39.83 G/DL | MONOCYTE [3]: 1.5% | NEUTROPHIL [3]: 3.67% | NUCLEATED RED BLOOD CELLS [3]: 0.17 /100WBC | PLATELET COUNT [3]: 1033.5 x10E3/uL | ALANINE AMINOTRANSFERASE [3]: 24.17 u/L | ALBUMIN [3]: 4.07 G/DL | ALKALINE PHOSPHATASE [3]: 292.33 u/L | ASPARTATE AMINOTRANSFERASE [3]: 43.17 u/L | BLOOD UREA NITROGEN [3]: 10.5 mg/dL | CARBON DIOXIDE [3]: 30.5 mmol/L | CHLORIDE [3]: 99.17 MEQ/L | CHOLESTEROL [3]: 80.33 mg/dL | CREATINE PHOSPHOKINASE [3]: 164.67 u/L | CREATININE [3]: 0.19 mg/dL | GLUCOSE [3]: 147.33 mg/dL | LACTATE DEHYDROGENASE [3]: 73.33 u/L | LIPASE [3]: 10.33 u/L | PHOSPHORUS [3]: 10.72 mg/dL | POTASSIUM [3]: 5.2 MEQ/L | SODIUM [3]: 143.78 MEQ/L | TOTAL BILIRUBIN [3]: 0.1 mg/dL | TOTAL PROTEIN [3]: 5.97 G/DL | URIC ACID [3]: 0.63 mg/dL

— ChEMBL document CHEMBL3885881, “DrugMatrix”
